Assay results taken from US20200113902A1, “COMPOSITIONS AND METHODS FOR TREATING CANCERS WITH COVALENT INHIBITORS OF CYCLIN-DEPENDENT KINASE 7 (CDK7)” (Syros Pharmaceuticals, Inc., priority 2017, published 2020).

Assays:
[1] = test system: ovarian carcinoma PDX models (OV5387, OV14702, OV14972, OV15398, OV15576, OV15696, OV15612, OV15631); test: Ovarian carcinoma patient-derived xenografts (eight models), tumor volume; format: in vivo, mouse; settings: 40 mg/kg or 30 mg/kg i.v. BIW; four did not respond
Description: (§1) Patient-derived xenograft (PDX) models from ovarian carcinoma patients (OV5387, OV14702, OV14972, OV15398, OV15576, OV15696, OV15612, OV15631) were established in NOD-SCID mice at Crown Bioscience (San Diego, USA). Cryo vials containing tumor cells were thawed and prepared for injection into mice. Cells were washed in PBS, counted, and resuspended in cold PBS at a concentration of 50,000-100,000 viable cells/100 ul. Cell suspensions were mixed with an equal volume of Cultrex ECM and kept on ice during transport to the vivarium. Cells were prepared for injections by withdrawing ECM-Cell mixture into a chilled slip-tip syringe fitted with a 26G 7/8 (0.5 mm×22 mm) needle. The filled syringes were kept on ice to avoid the solidification of ECM. Each mouse was inoculated subcutaneously in the right flank with 200 uL of the cell suspension. Tumor sizes were measured in two dimensions using a caliper, and the volumes were expressed in mm3 using the formula: V=0.5 a×b^2 where a and b are the longest and shortest diameters of the tumor, respectively. Compound 1 treatment was started when the average tumor size reached 150-200 mm^3.
(§2) Compound 1 was formulated in w/v 20% Captisol (pH 4-6) and administered by i.v. twice weekly (BIW) at a final dose of 40 mg/kg or 30 mg/kg in a 10 ml/kg volume. Tumor volumes were measured twice weekly over the course of the study. […]

AML xenografts = settings: previously shown; cited from earlier work
[2] = test system: MCL1 protein in OC1M1 cells; test: Western blot, AML cell line OC1M1; format: cell-based; settings: OC1M1 (high BCL-XL); 50 nM
Description: (§3) Cytotoxic cancer cell lines HCC70 and TOV21G, and cytostatic cancer cell lines T47D and COV318 were seeded in wells of a six-well dish at a density of 1×10^6 cells/well and allowed to adhere overnight. Cells were then treated with 50 nM of Compound 1 for 16 or 24 hours, or with DMSO (0 hours) representing a negative control. Cells were harvested and placed on ice, and resuspended in RIPA lysis buffer supplemented with protease and phosphatase inhibitors. Clarified lysates prepared with 4×LSD running buffer and boiled at 95° C. for 5 minutes. Equivalent amounts of sample (10 μg total protein) were run on a 4-12% Bis-Tris gel and transferred to a PDVF membrane for Western blotting using standard Western blotting protocols. Membranes were blocked with Licor TBS blocking buffer then probed with antibodies for BCL-XL, BCL-2, MCL1, BID, and GAPDH visualized using and Odyssey imager (FIGS. 23A and 23D).
We next explored the expression of MCL1, BCL-XL and BCL2 in four different AML cell lines. MV411, OCI-AML3 and KG1 cells were separately grown and prepared as described in Example 2 for Western blotting, using antibodies specific for BCL2 (FIG. 24A), BCL-XL, MCL-1 and tubulin as an internal control (FIG. 24B).

OV15612 xenograft = test: Ovarian PDX OV15612, tumor volume; format: in vivo, mouse; settings: OV15612 (FGFR1 super enhancer, CCNE1 high); 40 or 30 mg/kg i.v. BIW
Description: as §1, §2

BR5023 xenografts = test: TNBC patient-derived xenograft BR5023, tumor volume; format: in vivo, mouse; settings: 40 mg/kg or 30 mg/kg i.v. BIW
Description: as §1, with “TNBC” for “ovarian carcinoma”, “(BR5010, BR5013, BR5015, and BR5023)” for “(OV5387, OV14702, OV14972, OV15398, OV15576, OV15696, OV15612, OV15631)”, “mm^3” for “mm3”, “a×b^2,” for “a×b^2”
as §2

[3] = test system: MCL1 protein in MDAMB453 cells; test: Western blot of BCL2 family proteins, MDAMB453; format: cell-based, human; settings: 50 nM or 100 nM, 24 hours
Description: as §3
In a similar experiment, TNBC breast cancer cell lines HCC70, MDAMB468, MDAMB453 and CAL-120 were grown as described above and treated with DMSO, 50 nM Compound 1 or 100 nM Compound 1 for 24 hours. Protein samples were prepared as described above for Western blotting using antibodies specific for the indicated proteins in FIG. 29A. […]

OV15696 xenograft = test: Ovarian PDX OV15696, tumor volume; format: in vivo, mouse; settings: 40 or 30 mg/kg i.v. BIW
Description: as §1, §2

CN(C)C/C=C/C(=O)Nc1ccc(C(=O)N[C@@]2(C)CCC[C@@H](Nc3ncc(Cl)c(-c4c[nH]c5ccccc45)n3)C2)nc1 [Compound 1, N-((1S,3R)-3-(5-chloro-4-(1H-indol-3-yl)pyrimidin-2-ylamino)-1-methylcyclohexyl)-5-((E)-4-(dimethylamino)but-2-enamido)picolinamide]
Response to treatment across eight ovarian PDX models (tumor growth vs historical untreated) [1]: four of the xenografts responded to treatment | Anti-tumor activity (AML xenografts): anti-tumor activity | MCL1 protein level (Western blot) [2]: little effect | Response to treatment (tumor growth) (OV15612 xenograft): responded | Tumor growth vs untreated historical samples (BR5023 xenografts): little inhibitory effect on tumor growth | MCL1 protein level (Western blot) [3]: downregulated | Response to treatment (tumor growth) (OV15696 xenograft): non-responders
